Measurements: PubChem BioAssay AID330 (DTP/NCI, 2004)
Several values for one entry are separate records, joined by “and”; a condition that tells them apart may be missing. Equal entries are not always repeated. Inconclusive results and toxic doses are left out. The calls were made as follows: active = survival T/C of 150% or more; inactive = T/C below 125% in these data.

System: P388 leukemia ip, CD2F1 mice, survival T/C
Experiment: NCI In Vivo Anticancer Drug Screen. Data for tumor model P388 Leukemia (intraperitoneal) in CD2F1 (CDF1) mice
Details: endpoint: median survival time, higher = longer survival
Method in brief: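 Mice carrying the transplanted tumor received test compound or vehicle. Survival was recorded in each group, and the value is the treated-group measurement divided by that of the vehicle-treated control group.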

[1] = dose: 100.0 mg/kg/injection, schedule: Q04DX003 (ip), vehicle: Klucel (hydroxypropylcellulose) (HPC)
[2] = dose: 200.0 mg/kg/injection, schedule: Q04DX003 (ip), vehicle: Klucel (hydroxypropylcellulose) (HPC)
[3] = dose: 400.0 mg/kg/injection, schedule: Q04DX003 (ip), vehicle: Klucel (hydroxypropylcellulose) (HPC)
[4] = dose: 50.0 mg/kg/injection, schedule: Q04DX003 (ip), vehicle: saline with Tween-80
[5] = dose: 50.0 mg/kg/injection, schedule: Q01DX005 (ip), vehicle: saline with Tween-80
[6] = dose: 100.0 mg/kg/injection, schedule: Q01DX005 (ip), vehicle: saline with Tween-80
[7] = dose: 200.0 mg/kg/injection, schedule: Q01DX005 (ip), vehicle: saline with Tween-80
[8] = dose: 60.0 mg/kg/injection, schedule: Q01DX005 (ip), vehicle: Klucel (hydroxypropylcellulose) (HPC)
[9] = dose: 120.0 mg/kg/injection, schedule: Q01DX005 (ip), vehicle: Klucel (hydroxypropylcellulose) (HPC)
[10] = dose: 240.0 mg/kg/injection, schedule: Q01DX005 (ip), vehicle: Klucel (hydroxypropylcellulose) (HPC)
[11] = dose: 50.0 mg/kg/injection, schedule: Q01DX005 (ip), vehicle: Klucel (hydroxypropylcellulose) (HPC)
[12] = dose: 100.0 mg/kg/injection, schedule: Q01DX005 (ip), vehicle: Klucel (hydroxypropylcellulose) (HPC)
[13] = dose: 200.0 mg/kg/injection, schedule: Q01DX005 (ip), vehicle: Klucel (hydroxypropylcellulose) (HPC)
[14] = dose: 60.0 mg/kg/injection, schedule: Q01DX005 (ip), vehicle: saline with Tween-80
[15] = dose: 120.0 mg/kg/injection, schedule: Q01DX005 (ip), vehicle: saline with Tween-80
[16] = dose: 240.0 mg/kg/injection, schedule: Q01DX005 (ip), vehicle: saline with Tween-80

Measured: T/C

COc1ccc(CCN/C=C2\Cc3c(Cl)cccc3C2=O)cc1OC
inactive: [1] 100 % of control | [2] 93 % of control | [3] 99 % of control

COc1cc(C(=O)Nc2ccc(NC3=NCCN3)cc2)cc(C(=O)Nc2ccc(NC3=NCCN3)cc2)c1
inactive: dose: 6.25 mg/kg/injection, schedule: Q01DX005 (ip), vehicle: saline with Tween-80 102 % of control | dose: 12.5 mg/kg/injection, schedule: Q01DX005 (ip), vehicle: saline with Tween-80 106 % of control | dose: 25.0 mg/kg/injection, schedule: Q01DX005 (ip), vehicle: saline with Tween-80 115 % of control

CC(C)(C)c1cc(C(C)(C)O)c2c(c1)C(C)(C)OS2(C)Cl (stereo unspecified)
inactive: [4] 104 % of control

COC(=O)[C@H]1C[C@@H](N)[C@H](O)[C@@H]1O
inactive: dose: 60.0 mg/kg/injection, schedule: Q01DX005 (ip), vehicle: saline 102 % of control | dose: 120.0 mg/kg/injection, schedule: Q01DX005 (ip), vehicle: saline 101 % of control | dose: 240.0 mg/kg/injection, schedule: Q01DX005 (ip), vehicle: saline 100 % of control

NC(CC1C(=O)Nc2ccccc21)C(=O)O (stereo unspecified)
inactive: [5] 104 % of control | [6] 103 % of control | [7] 103 % of control

Cc1nc(N)c2nc(SC(C)C)c(N)nc2n1
inactive: dose: 50.0 mg/kg/injection, schedule: Q01DX009 (ip), vehicle: saline with Tween-80 91 % of control | dose: 100.0 mg/kg/injection, schedule: Q01DX009 (ip), vehicle: saline with Tween-80 91 % of control | dose: 200.0 mg/kg/injection, schedule: Q01DX009 (ip), vehicle: saline with Tween-80 91 % of control

O=c1[nH]c2c([N+](=O)[O-])cc(Cl)cc2nc1/C=C(\O)c1ccc(Cl)cc1
inactive: dose: 30.0 mg/kg/injection, schedule: Q01DX005 (ip), vehicle: Klucel (hydroxypropylcellulose) (HPC) 99 % of control | [8] 100 % of control | [9] 99 % of control and 108 % of control | [10] 105 % of control

COc1ccccc1P(=S)(c1ccccc1)c1ccccc1
inactive: [11] 99 % of control | [12] 99 % of control | [13] 96 % of control

CSC(=S)NN=C1CCCC1
inactive: dose: 12.5 mg/kg/injection, schedule: Q01DX009 (ip), vehicle: saline with Tween-80 101 % of control | dose: 25.0 mg/kg/injection, schedule: Q01DX009 (ip), vehicle: saline with Tween-80 101 % of control

COc1ccc(B(C)N2CCCCC2C)cc1 (stereo unspecified)
inactive: [5] 102 % of control | [6] 100 % of control | [7] 98 % of control

ON=C1C2C=CC=CC1C=C2
inactive: dose: 6.25 mg/kg/injection, schedule: Q01DX009 (ip), vehicle: saline 90 % of control | dose: 12.5 mg/kg/injection, schedule: Q01DX009 (ip), vehicle: saline 96 % of control | dose: 25.0 mg/kg/injection, schedule: Q01DX009 (ip), vehicle: saline 90 % of control

CCN1CC[N+](CC)=C1C(=S)[S-]
inactive: dose: 100.0 mg/kg/injection, schedule: Q01DX001 (ip), vehicle: saline with Tween-80 100 % of control | dose: 200.0 mg/kg/injection, schedule: Q01DX001 (ip), vehicle: saline with Tween-80 104 % of control | dose: 400.0 mg/kg/injection, schedule: Q01DX001 (ip), vehicle: saline with Tween-80 100 % of control

COc1ccc(/C=C/C2C(C#N)(C#N)C(OC)(OC)C2(OC)OC)cc1 (stereo unspecified)
inactive: [8] 101 % of control | [9] 102 % of control | [10] 98 % of control

O=c1c(Br)cc2c(-c3ccccc3)c3cc(Br)c(O)c(Br)c3oc-2c1Br
inactive: [14] 97 % of control | [15] 97 % of control | [16] 110 % of control

O=C1C(=O)c2cccnc2-c2ncccc21
inactive: dose: 1.56 mg/kg/injection, schedule: Q01DX005 (ip), vehicle: Klucel (hydroxypropylcellulose) (HPC) 115 % of control | dose: 3.12 mg/kg/injection, schedule: Q01DX005 (ip), vehicle: Klucel (hydroxypropylcellulose) (HPC) 106 % of control | dose: 6.25 mg/kg/injection, schedule: Q01DX005 (ip), vehicle: Klucel (hydroxypropylcellulose) (HPC) 115 % of control

O=c1ccc2c(O)c3ccoc3cc2o1
inactive: dose: 100.0 mg/kg/injection, schedule: Q01DX001 (ip), vehicle: Klucel (hydroxypropylcellulose) (HPC) 101 % of control | dose: 200.0 mg/kg/injection, schedule: Q01DX001 (ip), vehicle: Klucel (hydroxypropylcellulose) (HPC) 111 % of control | dose: 400.0 mg/kg/injection, schedule: Q01DX001 (ip), vehicle: Klucel (hydroxypropylcellulose) (HPC) 106 % of control

c1ccc(C2C(c3nc4ccccc4o3)C(c3ccccc3)C2c2nc3ccccc3o2)cc1 (stereo unspecified)
inactive: [11] 91 % of control | [12] 89 % of control | [13] 86 % of control

C[PH+](C)C.C[PH+](C)C.[Au]
inactive: dose: 1.25 mg/kg/injection, schedule: Q01DX009 (ip), vehicle: saline 112 % of control | dose: 2.5 mg/kg/injection, schedule: Q01DX009 (ip), vehicle: saline 114 % of control | dose: 5.0 mg/kg/injection, schedule: Q01DX009 (ip), vehicle: saline 116 % of control

CC(=O)Oc1ccc(N=Cc2cc3c(cc2[N+](=O)[O-])OCO3)cc1
inactive: dose: 12.5 mg/kg/injection, schedule: Q01DX009 (ip), vehicle: other 113 % of control | dose: 25.0 mg/kg/injection, schedule: Q01DX009 (ip), vehicle: other 117 % of control | dose: 50.0 mg/kg/injection, schedule: Q01DX009 (ip), vehicle: other 109 % of control | dose: 100.0 mg/kg/injection, schedule: Q01DX009 (ip), vehicle: other 93 % of control | dose: 200.0 mg/kg/injection, schedule: Q01DX009 (ip), vehicle: other 92 % of control | dose: 400.0 mg/kg/injection, schedule: Q01DX009 (ip), vehicle: other 96 % of control

CNc1cc2nc3ccccc3nc2cc1O
inactive: dose: 50.0 mg/kg/injection, schedule: Q01DX009 (ip), vehicle: saline 104 % of control | dose: 100.0 mg/kg/injection, schedule: Q01DX009 (ip), vehicle: saline 92 % of control | dose: 200.0 mg/kg/injection, schedule: Q01DX009 (ip), vehicle: saline 86 % of control

C1CCC2CC2C2(CC1)CO2 (stereo unspecified)
inactive: [1] 106 % of control | [2] 108 % of control | [3] 115 % of control

CCNC(C)(C)C(SS)c1ccc(C(F)(F)F)cc1 (stereo unspecified)
inactive: dose: 12.5 mg/kg/injection, schedule: Q04DX003 (ip), vehicle: saline with Tween-80 100 % of control | dose: 25.0 mg/kg/injection, schedule: Q04DX003 (ip), vehicle: saline with Tween-80 110 % of control | [4] 110 % of control | dose: 100.0 mg/kg/injection, schedule: Q04DX003 (ip), vehicle: saline with Tween-80 100 % of control | dose: 400.0 mg/kg/injection, schedule: Q04DX003 (ip), vehicle: saline with Tween-80 109 % of control

O=C(O)Cc1ccc2c(c1)Cc1cccnc1O2
inactive: dose: 50.0 mg/kg/injection, schedule: Q01DX009 (ip), vehicle: Klucel (hydroxypropylcellulose) (HPC) 108 % of control | dose: 100.0 mg/kg/injection, schedule: Q01DX009 (ip), vehicle: Klucel (hydroxypropylcellulose) (HPC) 96 % of control | dose: 200.0 mg/kg/injection, schedule: Q01DX009 (ip), vehicle: Klucel (hydroxypropylcellulose) (HPC) 119 % of control

CCOC(=O)C1=C(C)N[C@H](c2ccccc2[N+](=O)[O-])N[C@H]1c1ccccc1[N+](=O)[O-]
inactive: dose: 12.5 mg/kg/injection, schedule: Q01DX005 (ip), vehicle: Klucel (hydroxypropylcellulose) (HPC) 105 % of control | dose: 25.0 mg/kg/injection, schedule: Q01DX005 (ip), vehicle: Klucel (hydroxypropylcellulose) (HPC) 94 % of control | [11] 88 % of control and 92 % of control

COc1cc(C2CC(C)(O)Oc3cc4c(cc32)OCO4)cc(OC)c1O (stereo unspecified)
inactive: [14] 95 % of control | [15] 98 % of control | [16] 95 % of control

COc1ccc2c(c1)OCCCO/N=C(\c1ccccc1)c1ccc(OC)cc1OCCCO/N=C/2c1ccccc1 (tested in a mixture with another compound)
inactive: [5] 103 % of control | [6] 103 % of control | [7] 98 % of control
